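A five-concentration, 48-hour dose response in 96-well plates underlies each endpoint, interpolated linearly between surrounding concentrations. Abbreviation: GI50, concentration required for 50% inhibition of growth.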 The source made the active and inactive calls. Rule as the data show it: active = GI50 up to about 1.1 µM and inactive = higher.
Legend:
Test in all cases: NCI tumour cell line growth inhibition, 48 h
[1] = tested on: A498
[2] = tested on: ACHN
[3] = tested on: BT-549
[4] = tested on: CCRF-CEM
[5] = tested on: HCT-116
[6] = tested on: KM12
[7] = tested on: LOX IMVI
[8] = tested on: MCF7
[9] = tested on: MDA-MB-231
[10] = tested on: MDA-MB-435
[11] = tested on: MDA-N
[12] = tested on: MOLT-4
[13] = tested on: NCI-H226
[14] = tested on: NCI-H460
[15] = tested on: OVCAR-5
[16] = tested on: SN12C
[17] = tested on: SNB-19
[18] = tested on: SR
[19] = tested on: U-251
[20] = tested on: SK-MEL-2

Measured: GI50

COC(=O)/C=C/CCC#Cc1ccccc1C#CCC/C=C/C(=O)OC
inactive: [1] 38.5 µM | [2] 23.7 µM | [3] 7.55 µM | [4] 4.48 µM | [5] 3.48 µM | [6] 4.98 µM | [7] 4.99 µM | [8] 6.41 µM | [9] 20.1 µM | [10] 6 µM | [11] 4.47 µM | [12] 3.01 µM | [13] 13.1 µM | [14] 12.4 µM | [15] 23.5 µM | [16] 7.38 µM | [17] 4.97 µM | [18] 3.43 µM | [19] 4.32 µM

COc1ccc(CC(=O)N2CCC3(C)CC(=O)CC=C23)cc1OC (centres undefined)
inactive: [1] > 100 µM | [2] > 100 µM | [3] > 100 µM | [5] > 100 µM | [6] > 100 µM | [7] > 100 µM | [8] > 100 µM | [9] > 100 µM | [10] > 100 µM | [11] > 100 µM | [12] > 100 µM | [13] > 100 µM | [15] > 100 µM | [20] > 100 µM | [16] > 100 µM | [17] > 100 µM | [18] > 100 µM | [19] > 100 µM

CC(C)[C@@H](C)[C@@]1(C)C[C@@H]1[C@@H](C)[C@H]1CC[C@@H]([C@@H]2CC=C3C[C@@H](O)CC[C@]3(C)C2=O)[C@]1(C)CCO
inactive: [1] 15.3 µM | [2] 12.5 µM | [3] 16.6 µM | [5] 10.1 µM | [6] 2.82 µM | [7] 4.57 µM | [8] 10.9 µM | [9] 14.8 µM | [10] 11.9 µM | [11] 13.3 µM | [12] 4.17 µM | [13] 12.5 µM | [14] 1.77 µM | [15] 11.6 µM | [20] 18.3 µM | [16] 12.9 µM | [17] 12.6 µM | [18] 2.69 µM | [19] 11 µM

C=[N+](CNC(=O)CNC(=O)C(Cc1ccc([N+](=O)[O-])cc1)NC(=O)OC(C)(C)C)C(=O)CNC(=O)C(Cc1ccc([N+](=O)[O-])cc1)NC(=O)OC(C)(C)C (centres undefined)
inactive: [1] 30.7 µM | [2] > 100 µM | [3] 28.1 µM | [5] 36.2 µM | [6] 53.1 µM | [7] 15.7 µM | [8] 40.8 µM | [9] 25.7 µM | [10] 26.2 µM | [11] > 10 µM | [12] 17 µM | [13] 60.7 µM | [14] > 100 µM | [15] > 100 µM | [16] 47.9 µM | [17] 37 µM | [18] 24 µM | [19] 39.4 µM

Reference: ChEMBL document CHEMBL1201862, “PubChem BioAssay data set” (2004)
